Patent EP0257993B1, “Nucleic acid fragment encoding herbicide resistant plant acetolactate synthase” (priority 1986, dated 1988)
Like-named read-outs stand apart in the source and are kept apart here.

Columns and labels:
melon callus = test: Kanamycin selection of melon cotyledon explants; type: cell-based, Cucumis melo cv. Amarillo Oro; details: kanamycin at 100µm/l
tobacco callus [1] = details: Kanamycin, 50 mg/L
Procedure: For plant cell transformations, standard aseptic techniques for the manipulation of sterile media and axenic plant/bacterial cultures were followed, including the use of a laminar flow hood for all transfers. Recipes for media are given in Example VI. Potted tobacco plants for leaf disk infections were grown in a growth chamber maintained for a 12 hr. 24°C day, 12 hr, 20°C night cycle, with approximately 80% relative humidity, under mixed cool white fluorescent and incandescent lights. Tobacco leaf disk infections were carried out essentially by the method of Horsch et al. (1985) Science 227, 1229.
Young leaves, not fully expanded and approximately 4-6 inches in length, were harvested with a scalpel from approximately 4-6 week old tobacco plants (Nicotiana tabacum var. Xanthi). The leaves were surface sterilized for 30 minutes by submerging them in approximately 500 ml of a 10% Chlorox, 0.1% SDS solution and then rinsed 3 times with sterile deionized water. Leaf disks, 6 mm in diameter, were prepared from whole leaves using a sterile paper punch.
Leaf disks were inoculated by submerging them for several minutes in 20 ml of a 1:10 dilution of an overnight Agrobacterium culture carrying the plasmid GCKNT13. Agrobacterium cultures were started by inoculating 10 ml of YEB broth with a single bacterial colony removed form a R-agar plate. The culture was grown for approximately 17-20 hours in 18 mm glass culture tubes in a New Brunswick platform shaker maintained at 28°C.
After inoculation, the leaf disks were placed in petri dishes containing CN agar medium. The dishes were sealed with paraflm and incubated under mixed fluorescent and "Gro and Sho" plant light (General Electric) for 2-3 days in a culture room maintained at approximately 25°C.
[…] Cefotaxime was kept as a frozen 100 mg/ml stock solution and added aseptically (filter sterilized through a 0.45 µm filter) to the media after autoclaving. A fresh kanamycin stock (50 mg/ml) was made for each use and was filter sterilized into the autoclaved media.
Leaf disks were incubated under the growth conditions described above for 3 weeks and then transferred to fresh media of the same composition.
Root formation on selective and non-selective media was recorded within 3 weeks.
Callus growth on selective and non-selective media was recorded within 3 weeks.

[2] = system: Brassica napus callus tissue; test: Kanamycin selection of Brassica napus hypocotyl explants; type: cell-based, Brassica napus cv. Olga; details: of 100 wound sites; kanamycin 100 mg/L
tobacco callus [3] = test: Growth of tobacco mutant callus (C3, S4, Hra) on herbicide; type: cell-based, Nicotiana tabacum var. Xanthi; details: Hra cell line
Procedure: Callus cultures of sensitive tobacco (Nicotiana tabacum var. Xanthi) were exposed to sulfometuron methyl at 2 ppb according to the method described by Chaleff, U.S. 4,443,971. […] Plants were regenerated from Hra callus cultures. […] ALS activity in extracts of leaves of wild type and homozygous Hra mutant tobacco plants was determined.

calli of B. vulgaris = test: Chlorsulfuron resistance of sugarbeet calli; type: cell-based, Beta vulgaris 87193
From the text: Selection for transformed plant cells was applied as follows. […] The number of resistant colonies was counted after 20-30 days. More than one may be observed at each wound. Transformants were excised as follows. Callus was removed from the wound/explant with a surgical blade and cultured independently on fresh selective media. Some Agrobacterium can escape from counter-selection. Additional washes in cefotaxime containing liquid media are possible, as is repeated transfer to cefotaxime containing agar solidified plates. […]

[4] = system: Cells of N.tabacum cv. W38; test: Level of chlorsulfuron resistance in transformed N. tabacum colonies; type: cell-based
ALS = ALS assay, wild type Brassica napus; type: biochemical
Procedure: Keep on ice. • 2. […] 16K rpm, 4°C. • 4. […] Incubate on ice for 30 minutes. • 6. […] Decant supernatant. • 7. Resuspend pellet in 1 ml cold column buffer. • 8. […] Let this run through column. • 9. Elute proteins with 2X volume of extract loaded. […] Incubate reaction for 1 hour, 30°C. • 12. […] Spin in microfuge 5 minutes. • 13. […] Read at OD 530.

**Q.** Which results are given for `NC[C@H]1O[C@H](O[C@H]2[C@H](O)[C@@H](O[C@H]3O[C@H](CO)[C@@H](O)[C@H](N)[C@H]3O)[C@H](N)C[C@@H]2N)[C@H](O)[C@@H](O)[C@@H]1O` [Kanamycin]?
**A.** explants that developed callus resistant to kanamycin (melon callus): Approximately 70%; Number of transformed shoot explants producing callus on selective and non-selective media (tobacco callus [1]; EXP. #1, GV3850): 0/10; Number of transformed shoot explants producing callus on selective and non-selective media (tobacco callus [1]; EXP. #1, GVKK): 8/13; Number of transformed shoot explants producing callus on selective and non-selective media (tobacco callus [1]; EXP. #1, GVKNT13): 53/62; Number of transformed shoot explants producing callus on selective and non-selective media (tobacco callus [1]; Exp. #2, GV3850): 0/25; Number of transformed shoot explants producing callus on selective and non-selective media (tobacco callus [1]; Exp. #2, GVKK): 16/23; Number of transformed shoot explants producing callus on selective and non-selective media (tobacco callus [1]; Exp. #2, GVKNT13): 81/102; wound sites that developed callus tissue resistant to kanamycin [2]: 20

**Q.** What does the source list for `COc1nc(C)nc(NC(=O)NS(=O)(=O)c2ccccc2Cl)n1` [chlorsulfuron]?
**A.** cross resistance of cell line (tobacco callus [3]): cross resistant; level of chlorsulfuron resistance in calli of B. vulgaris (calli of B. vulgaris; 87193/0 (untransformed), Chlorsulfuron 10 ppb): 0/15; level of chlorsulfuron resistance in calli of B. vulgaris (calli of B. vulgaris; 87193/0 (untransformed), Chlorsulfuron 30 ppb): 0/15; level of chlorsulfuron resistance in calli of B. vulgaris (calli of B. vulgaris; 87193/152 (transformed, pAGS152), Chlorsulfuron 10 ppb): 15/15; level of chlorsulfuron resistance in calli of B. vulgaris (calli of B. vulgaris; 87193/152 (transformed, pAGS152), Chlorsulfuron 30 ppb): 15/15; level of chlorsulfuron resistance in calli of B. vulgaris (calli of B. vulgaris; 87193/152 (transformed, pAGS152), Chlorsulfuron 100 ppb): 15/15; level of chlorsulfuron resistance in calli of B. vulgaris (calli of B. vulgaris; 87193/152 (transformed, pAGS152), Chlorsulfuron 300 ppb): 15/15; level of chlorsulfuron resistance in calli of B. vulgaris (calli of B. vulgaris; 87193/152 (transformed, pAGS152), Chlorsulfuron 1000 ppb): 15/15; level of chlorsulfuron resistance in calli of B. vulgaris (calli of B. vulgaris; 87193/152 (transformed, pAGS152), Chlorsulfuron 3000 ppb): 3/15; level of chlorsulfuron resistance in calli of B. vulgaris (calli of B. vulgaris; 87193/152 (transformed, pAGS152), Chlorsulfuron 10000 ppb): 0/15; chlorsulfuron resistance conferred in transformed tobacco calluses ([4]; 8.3 kb DNA fragment (SURB-Hra)): up to 2000 ppb; concentration colonies could tolerate ([4]; colonies derived from co-cultivation with A. tumefaciens containing pAGS152): up to 2000 ppb; concentration at which colonies are sensitive ([4]; wild type colonies): 2 ppb; Percent Uninhibited ALS Activity (ALS; 1ppb): 86.6%; Percent Uninhibited ALS Activity (ALS; 10ppb): 28.2%; Percent Uninhibited ALS Activity (ALS; 100ppb): 10.1%; Percent Uninhibited ALS Activity (ALS; 1000ppb): 7.6%
